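Step 1: Grow cells in 96-well plates. Step 2: Expose to compound for 48 hours at 5 concentrations. Step 3: Interpolate endpoints linearly; if unreached, use highest concentration. GI50: concentration for 50% inhibition of growth. TGI: concentration producing complete growth inhibition.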
Columns and labels:
Assay in all cases: DTP human tumour cell line panel, 48 h
[1] = system: SF-268 CNS
[2] = system: NCI-H522 lung
[3] = system: RXF 393 renal
[4] = system: SF-539 CNS
[5] = system: UACC-257 melanoma
[6] = system: SK-OV-3 ovarian
[7] = system: 786-0 renal
[8] = system: TK-10 renal
[9] = system: SR leukemia

Structure (SMILES) | GI50 [1] [µM] | TGI [1] [µM] | GI50 [2] [µM] | TGI [2] [µM] | GI50 [3] [µM] | TGI [3] [µM] | GI50 [4] [µM] | TGI [4] [µM] | GI50 [5] [µM] | TGI [5] [µM] | GI50 [6] [µM] | TGI [6] [µM] | GI50 [7] [µM] | TGI [7] [µM] | TGI [8] [µM] | TGI [9] [µM] | GI50 [8] [µM] | GI50 [9] [µM]
CC(C)(C)C([O-])=C1C(=O)c2ccccc2C1=O.CC(C)(C)C([O-])=C1C(=O)c2ccccc2C1=O.CC[O-].CC[O-].[Ti+4] | 70.6 | > 100 | 21.7 | 54.2 | 10.8 | 90.3 | 50.8 | > 100 | 30.4 | 96.9 | 39.9 | > 100 | 47.2 | > 100 | – | – | – | –
Cn1cc(NC(=O)c2cc(NC(=O)CCCCCC(=O)Nc3cc(C(=O)Nc4cc(C(=O)NCCC(=N)N)n(C)c4)n(C)c3)cn2C)cc1C(=O)NCCC(=N)N | – | > 100 | – | – | – | > 100 | – | > 100 | – | > 100 | – | > 100 | – | > 100 | > 100 | – | – | –
Cc1ccc(S(=O)(=O)ON/N=C2/C3OC3[C@@H]3CCCC[C@H]23)cc1 (some centres not stated) | – | > 100 | – | > 100 | – | > 100 | – | > 100 | – | 32.5 | – | – | – | > 100 | > 100 | > 100 | – | –
Cn1nnnc1[N-]Cc1ccccc1.[Au+].c1ccc([PH+](c2ccccc2)c2ccccc2)cc1 | 3.45 | 14 | – | – | 1.29 | 2.68 | 8.93 | 23.2 | 2.01 | 7.78 | 16.6 | 30.3 | 1.71 | 3.37 | 5.02 | – | 2.46 | –
CCc1cccc(C)c1NC(=O)CC1Sc2ccccc2NC1=O (configuration not stated) | – | > 100 | – | 61.5 | – | 73.7 | – | > 100 | – | 57.7 | – | > 100 | – | > 100 | > 100 | – | – | –
CCCN(CCC)c1c([N+](=O)[O-])cc(S(N)(=O)=O)cc1[N+](=O)[O-] | – | 32.8 | – | 31.5 | – | – | – | 35.9 | – | 37.2 | – | 31.8 | – | 30.4 | – | 57.4 | – | –
COc1ccc(/C=[N+](\[O-])[C@H](COCc2ccccc2)c2ccccc2)cc1 | – | > 100 | – | > 100 | – | > 100 | – | > 100 | – | > 100 | – | > 100 | – | > 100 | > 100 | – | – | –
CC1=C2N3C[C@@H](n4c(=O)n(C)c(=O)n43)C23CCC1n1c(=O)n(C)c(=O)n13 | – | > 100 | – | – | – | – | – | > 100 | – | > 100 | – | – | – | > 100 | > 100 | – | – | –
COC(=O)/C(=N/NC(C)(C)C)C(C(=O)C=C(C)C)C(=O)C(=O)Nc1ccc(Cl)cc1C (configuration not stated) | – | > 100 | – | > 100 | – | – | – | > 100 | – | > 100 | – | > 100 | – | > 100 | > 100 | > 100 | – | –
CCCCCCCCCCCC(=O)C1=C(O)C(O)CCC1=O (configuration not stated) | – | > 100 | – | 33.1 | – | > 100 | – | 45.4 | – | 37.2 | – | 67.2 | – | > 100 | 49 | – | – | –
O=C(O)c1[nH]c(C(=O)O)c(CC(F)(F)C(F)(F)C(F)(F)F)c1CC(F)(F)C(F)(F)C(F)(F)F | – | > 100 | – | > 100 | – | > 100 | – | > 100 | – | > 100 | – | > 100 | – | > 100 | > 100 | – | – | –
O=C(N=Nc1c(O)[nH]c2ccccc12)c1ccccc1O | – | > 100 | – | > 100 | – | > 100 | – | > 100 | – | > 100 | – | 46.6 | – | > 100 | > 100 | – | – | –
CC(SC1=CC(=O)c2c(O)ccc(O)c2C1=O)C(=O)O (configuration not stated) | – | > 75.1 | – | 9.79 | – | > 64.4 | – | > 100 | – | > 66 | – | > 100 | – | 56.8 | > 82.2 | > 100 | – | –
[Cl][Sn]([c]1ccccc1)[c]1ccccc1 | 4.1 | 16.1 | 0.352 | 1.89 | 1.55 | 3.24 | 9.43 | 22.6 | 8.25 | 23.1 | 18.4 | 32.7 | 3.79 | 12.8 | 8.57 | 17.5 | 3.17 | 3.39
Cc1cc2occ(C)c(=O)c2c2c1OC(C)(C)S2 | – | > 100 | – | > 100 | – | > 100 | – | > 100 | – | > 100 | – | > 100 | – | > 100 | > 100 | > 100 | – | –
c1cncc(C2c3[nH]c4ccccc4c3CCN2CCN2CCCCC2)c1 (configuration not stated) | – | > 100 | – | > 100 | – | – | – | > 100 | – | 99.4 | – | > 100 | – | > 100 | > 100 | > 100 | – | –
